# Laboratory results reported in patent US9335323B2, “Method for sorting of pluripotent cells” (KYOTO UNIVERSITY, priority 2012, dated 2016).
# Assays:
# human iPS cells [1] = test: Image-based screening: fluorescence staining of human iPS cells versus feeder cells; format: cell-based; conditions: fluorescence images, human iPS cells on SNL feeder cells, FIG. 1A
# Protocol: Fluorescent-compound libraries were provided from Young-Tae Chang's group (Ahn, Y-H., Lee, J-S. and Chang, Y-T. J. Am. Chem. Soc. 2007, 129, 4510-4511). Human iPS cells (clone#[…]) were plated on SNL feeder cells in 96-well plate. Five days after plating, fluorescent compounds were added at the final concentration of 4 μM. After incubation overnight, fluorescence microscopic images were taken by using Carl Zeiss Axioskop.
# human iPS cells [2] = test: Sub-cellular localization in human iPS cells (co-staining with MitoRed, CCCP); format: cell-based; conditions: for cells in which mitochondria are stained: human iPS cells and feeder cells; for sub-cellular localization: human iPS cells on feeder cells
# Protocol: Human iPS cells (clone#201B7) were plated on SNL feeder cells in 24-well plate. One day after plating, the cells were incubated with 1 μM Compound 1 for 4 hours at 37° C. After removing Compound 1 by washing with PBS, the cells were incubated with 9.6 nM MitoRed for 30 min at 37° C. The cells were rinsed with PBS and kept in fresh medium (without dye). Fluorescence microscopic images were taken by using Carl Zeiss Axioinvert 100M
# ABCG2 = target: T1, ABCG2 (Homo sapiens, UniProt Q9UNQ0); test: Accumulation of fluorescent compound in cells with different ABCG2 expression; format: cell-based; conditions: stained cells regardless of expression level
# T1 sequence (Q9UNQ0 1-655): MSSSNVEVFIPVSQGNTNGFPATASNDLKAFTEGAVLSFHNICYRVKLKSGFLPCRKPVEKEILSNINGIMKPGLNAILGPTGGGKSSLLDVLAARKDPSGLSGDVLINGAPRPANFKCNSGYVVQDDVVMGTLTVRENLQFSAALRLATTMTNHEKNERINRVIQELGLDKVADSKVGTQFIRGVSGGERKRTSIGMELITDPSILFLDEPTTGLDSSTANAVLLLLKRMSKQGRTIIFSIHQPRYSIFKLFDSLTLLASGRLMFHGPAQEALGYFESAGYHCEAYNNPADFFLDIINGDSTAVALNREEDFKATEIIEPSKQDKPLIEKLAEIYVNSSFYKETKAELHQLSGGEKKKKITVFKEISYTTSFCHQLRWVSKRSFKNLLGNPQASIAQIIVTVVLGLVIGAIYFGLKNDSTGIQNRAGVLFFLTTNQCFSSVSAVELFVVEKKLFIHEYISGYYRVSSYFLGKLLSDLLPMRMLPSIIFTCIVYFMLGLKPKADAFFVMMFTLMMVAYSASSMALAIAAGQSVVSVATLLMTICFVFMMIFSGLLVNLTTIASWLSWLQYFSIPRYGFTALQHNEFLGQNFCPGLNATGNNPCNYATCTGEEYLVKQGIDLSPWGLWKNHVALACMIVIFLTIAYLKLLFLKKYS
# Protocol: (§1) Cells were subcultured in 35 mm/glass base dish (IWAKI) at a density of 5×10^5 cells per dish in DMEM containing 10% FBS for 24-48 hours. Then, cells were incubated in DMEM containing 10% FBS and the compounds for 2 hours at 37° C., washed with phosphate-buffered saline (PBS), and observed using a confocal microscope (LSM 700; Carl Zeiss).
# (§2) MDR1-expressing model cell lines (KB/MDR1) were established from KB3-1, a cell line with no MDR1 expression. KB/MDR1 and KB3-1 were treated with Compound 1 for 2 hrs. Then, their images were observed under a fluorescent microscope (FIG. 4c, 4d). […] Similar experiments were conducted with ABCG2 and ABCC1 (MRP1).
# human iPS cells [3] = test: Fluorescence microscopic imaging of partially differentiated human iPS cells (donut-shaped colonies); format: cell-based; conditions: over-grown, 4 μM, 4.5 hours
# Protocol: Human iPS cells (clone#201B7) were plated on SNL feeder cells in 96-well plate. […] These cells were incubated with 4 μM Compound 1 for 4.5 hours at 37° C. Fluorescence microscopic images were taken by using Carl Zeiss Axioskop.
# human ES cells [4] = test: Fluorescence microscopic imaging of human ES cells and retinoic acid-differentiated cells; format: cell-based; conditions: 1 μM, 2 hours
# Protocol: The hES cell line KhES-1 was maintained as described previously (Suemori, H. et al. Biochem. Biophys. Res. Commun. 2006, 345, 926-932). To induce differentiation of hESCs, cells seeded onto Matrigel-coated plate were cultured for 4 days with 500 nM all-trans retinoic acid (Sigma R2625) in DMEM supplemented with 10% FBS. After staining with 1 μM Compound 1 for 2 hours, cells were rinsed with PBS and kept in fresh medium (without dye). Fluorescent microscopy was performed by using Olympus IX71 with DP72.
# human iPS cells [5] = test: Flow cytometry (FACS) of mixtures of human iPS cells and feeder cells; format: cell-based
# Protocol: Human iPS cells (clone#201B7) cells (Takahashi, K. et al. Cell 2007, 131, 861-872) were plated at a density of 2×10^5 cells/well of 6-well plate on SNL feeder cells (McMahon, A. P. and Bradley, A., Cell, 62, 1073-1085, 1990). Six days after plating, the cells were incubated with 2 μM Compound 1 (Table 2) for 3 hours (fluorescence microscopic images were taken at this point). The cells were dissociated with Accutase (Invitrogen) into single cells and stained with a-SSEA-4-Alexa647 for 30 min at room temperature. After washing, FACS (FACS Aria II) analysis was performed.
# human ES cells [6] = test: Microscopy and FACS of human ES cells and differentiated cells; format: cell-based
# Protocol: Cells were prepared as above. After staining with 1 μM Compound 1 for 1 hour, cells were rinsed with PBS and cultured for additional 24 hours. Fluorescent microscopy was performed by using Olympus IX71 with DP72. CsA was added at the concentration of 10 μM during staining with Compound 1 and following culture until analysis. For FACS analysis, the cells were washed twice with ice-cold PBS and then dissociated with 0.25% trypsin-EDTA into a single cell suspension for direct analysis. The proportions of cells with Compound 1 were examined on a FACSCalibur flow cytometer (Becton Dickenson, Calif., USA) with reference to a baseline of untreated undifferentiated or differentiated hESCs.
# ABCB1 (MDR1) [7] = test: Accumulation of fluorescent compound in KB3-1 and KB/MDR1 cells; format: cell-based, human; conditions: KB3-1 cells with no MDR1 expression, 2 hrs
# Protocol: (§3) KB/MDR1, stably expressing human MDR1, and KB3-1 host cells (Ueda, K et al., PNAS 84, 3004-3008, 1987) were maintained in DMEM supplemented with 10% FBS in a humidified incubator (5% CO2) at 37° C. Cells were subcultured in 35 mm/glass base dish (IWAKI) at a density of 5×10^5 cells per dish in DMEM containing 10% FBS for 24-48 hours.
# ABCB1 (MDR1) [8] = target: T2, ABCB1 (MDR1) (Homo sapiens, UniProt P08183); test: as above; format: cell-based
# T2 construct: expressed in transfected cells; host or cells: KB/MDR1 (derived from KB3-1)
# T2 sequence (P08183 whole entry): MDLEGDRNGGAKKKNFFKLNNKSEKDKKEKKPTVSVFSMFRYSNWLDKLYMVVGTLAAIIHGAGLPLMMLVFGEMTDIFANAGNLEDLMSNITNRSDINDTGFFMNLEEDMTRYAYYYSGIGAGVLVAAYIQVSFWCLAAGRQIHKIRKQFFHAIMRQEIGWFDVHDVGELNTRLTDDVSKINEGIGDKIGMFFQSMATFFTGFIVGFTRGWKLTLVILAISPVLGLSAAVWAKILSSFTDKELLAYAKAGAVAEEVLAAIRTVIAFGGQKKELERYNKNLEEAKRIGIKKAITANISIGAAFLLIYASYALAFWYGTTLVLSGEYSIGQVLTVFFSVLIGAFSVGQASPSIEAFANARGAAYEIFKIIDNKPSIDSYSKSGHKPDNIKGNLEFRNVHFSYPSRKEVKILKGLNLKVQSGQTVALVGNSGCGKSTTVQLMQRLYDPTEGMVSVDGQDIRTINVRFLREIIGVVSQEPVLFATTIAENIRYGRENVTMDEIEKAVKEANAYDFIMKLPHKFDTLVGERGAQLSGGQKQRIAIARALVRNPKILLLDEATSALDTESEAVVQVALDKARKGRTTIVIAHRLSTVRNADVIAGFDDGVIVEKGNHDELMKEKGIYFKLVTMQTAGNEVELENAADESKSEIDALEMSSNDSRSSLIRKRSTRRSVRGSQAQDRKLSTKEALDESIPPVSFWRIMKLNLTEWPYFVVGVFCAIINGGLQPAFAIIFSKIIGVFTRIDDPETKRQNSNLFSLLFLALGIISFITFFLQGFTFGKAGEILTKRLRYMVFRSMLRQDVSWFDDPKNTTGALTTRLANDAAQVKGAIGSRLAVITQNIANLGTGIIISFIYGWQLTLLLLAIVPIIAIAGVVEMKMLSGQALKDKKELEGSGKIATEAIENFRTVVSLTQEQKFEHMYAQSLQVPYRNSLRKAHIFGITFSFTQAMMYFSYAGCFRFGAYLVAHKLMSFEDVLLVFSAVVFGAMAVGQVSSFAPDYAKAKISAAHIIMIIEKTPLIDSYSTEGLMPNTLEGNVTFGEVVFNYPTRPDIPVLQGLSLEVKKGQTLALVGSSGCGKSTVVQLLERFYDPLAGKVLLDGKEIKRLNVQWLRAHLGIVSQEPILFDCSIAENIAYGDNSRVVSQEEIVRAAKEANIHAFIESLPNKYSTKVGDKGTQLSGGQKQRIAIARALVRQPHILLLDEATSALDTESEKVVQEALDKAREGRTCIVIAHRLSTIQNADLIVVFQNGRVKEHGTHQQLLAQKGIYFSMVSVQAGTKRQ
# Protocol: as §3
# ABCC1 (MRP1) = ABCC1 (MRP1) (Homo sapiens, UniProt P33527); test: Accumulation of fluorescent compound in cells with different ABCC1 (MRP1) expression; format: cell-based; conditions: stained cells regardless of expression level
# Chain of ABCC1 (MRP1) (P33527 whole entry): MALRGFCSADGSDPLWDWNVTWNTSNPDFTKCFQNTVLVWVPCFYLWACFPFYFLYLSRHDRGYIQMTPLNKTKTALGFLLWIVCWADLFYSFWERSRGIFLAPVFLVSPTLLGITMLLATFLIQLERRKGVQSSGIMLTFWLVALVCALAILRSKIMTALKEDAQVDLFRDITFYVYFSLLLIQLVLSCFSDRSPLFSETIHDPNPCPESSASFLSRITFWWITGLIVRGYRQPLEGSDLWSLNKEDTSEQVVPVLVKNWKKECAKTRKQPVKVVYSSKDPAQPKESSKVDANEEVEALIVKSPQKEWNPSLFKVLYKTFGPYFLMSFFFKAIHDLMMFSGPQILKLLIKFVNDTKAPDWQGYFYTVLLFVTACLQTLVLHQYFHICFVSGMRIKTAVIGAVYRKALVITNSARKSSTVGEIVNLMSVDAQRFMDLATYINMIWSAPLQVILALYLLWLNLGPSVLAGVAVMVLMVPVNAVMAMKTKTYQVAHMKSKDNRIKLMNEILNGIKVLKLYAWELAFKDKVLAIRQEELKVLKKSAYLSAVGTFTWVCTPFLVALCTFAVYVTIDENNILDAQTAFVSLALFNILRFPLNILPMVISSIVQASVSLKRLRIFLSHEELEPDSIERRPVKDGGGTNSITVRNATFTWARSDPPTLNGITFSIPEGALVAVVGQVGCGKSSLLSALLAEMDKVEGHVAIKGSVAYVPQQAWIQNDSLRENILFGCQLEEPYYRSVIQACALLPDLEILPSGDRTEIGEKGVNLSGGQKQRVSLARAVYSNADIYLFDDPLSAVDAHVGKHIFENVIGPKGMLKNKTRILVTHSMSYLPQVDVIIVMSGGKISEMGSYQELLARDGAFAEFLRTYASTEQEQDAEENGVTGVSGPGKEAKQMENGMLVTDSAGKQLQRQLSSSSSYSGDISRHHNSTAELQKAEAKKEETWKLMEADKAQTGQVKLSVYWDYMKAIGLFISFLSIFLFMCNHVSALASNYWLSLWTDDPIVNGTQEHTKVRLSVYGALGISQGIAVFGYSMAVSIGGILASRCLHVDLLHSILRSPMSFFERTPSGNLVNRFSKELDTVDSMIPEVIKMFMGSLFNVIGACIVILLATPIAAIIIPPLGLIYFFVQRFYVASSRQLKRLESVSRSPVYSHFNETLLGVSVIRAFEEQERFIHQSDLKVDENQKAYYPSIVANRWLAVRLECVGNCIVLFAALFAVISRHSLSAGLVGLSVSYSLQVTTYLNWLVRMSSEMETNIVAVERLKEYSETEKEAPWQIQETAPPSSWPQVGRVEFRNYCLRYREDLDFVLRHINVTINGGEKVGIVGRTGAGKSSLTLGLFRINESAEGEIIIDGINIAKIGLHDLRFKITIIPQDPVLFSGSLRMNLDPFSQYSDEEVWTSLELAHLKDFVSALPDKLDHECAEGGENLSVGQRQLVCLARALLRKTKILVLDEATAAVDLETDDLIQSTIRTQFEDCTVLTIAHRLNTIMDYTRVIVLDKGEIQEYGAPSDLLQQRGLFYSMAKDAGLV
# Protocol: as §1, §2
# [9] = system: mitochondrial proteins of human iPS cells; test: 2-DE and mass analysis of mitochondrial proteins labeled in human iPS cells; format: cell-based; conditions: 1 μM, 4 hours, 2-dimensional SDS-PAGE
# Protocol: Human iPS cells were treated with the chloroacetyl derivative of Compound 1 (Compound 22) (1 μM) for 4 hours, and then washed twice with PBS. After treatment with CTK solution (Reprocell) to remove SNL feeder cells, human iPS cells were harvested with treatment of accutase. Mitochondria fraction was obtained from the cell pellet by using ProteoExtract® Cytosol/Mitochondria Fractionation kit according to the manufacturer's instruction. Isoelectric focusing (IEF) was performed by using ampholine (pH 3.5-10, Phamalyte 3-10 for IEF, GE Healthcare). Then, the IEF strips were separated on 10% SDS-PAGE gel for 2D analysis. 2D fluorescence image was acquired using the Typhoon 9400 scanner (GE healthcares) at excitation/emission wavelengths of 532 nm/580 nm. The fluorescence-labeled spots were excised from the gel for mass analysis.
# [10] = doubly stained with Compound 1 and anti-SSEA-4 antibody
# [11] = mixture of human iPS cells and feeder cells, 2 μM, 3 hours, flow cytometry
compound,measurement,setting,value
N=c1ccc2c(-c3ccccc3F)c3ccc(N)cc3oc-2c1 [Compound 36],staining of human iPS cells compared with feeder cells,human iPS cells [1],stained human iPS cells stronger than feeder cells
N=c1ccc2c(-c3ccc(F)cc3)c3ccc(N)cc3oc-2c1 [Compound 1],staining pattern in the presence of CCCP,"human iPS cells [2]; CCCP 5 μM, 1 μM, 2 hours",remained the same
same,cells in which mitochondria are stained,human iPS cells [2],only in iPS cells
same,sub-cellular localization,human iPS cells [2],overlaps with that of MitoTracker Red
same,substrate for ABCG2,ABCG2,not a substrate
same,staining of donut-shaped iPS cell colonies,human iPS cells [3],selectively stained undifferentiated parts of those colonies but not the central parts
same,staining after partial differentiation by retinoic acid,human ES cells [4]; 500 nM retinoic acid 4 days,less densely stained parts of colonies
same,staining of human ES cell colonies compared with feeder cells,human ES cells [4],stained more strongly than feeder cells
same,SSEA-4-negative cells not stained by Compound 1,human iPS cells [5]; [10],55.2%
same,SSEA-4-positive cells also stained by Compound 1,human iPS cells [5]; [10],42.4%
same,specificity of staining for iPS cells,human iPS cells [5]; human iPS cells versus feeder cells,capable of staining iPS cells specifically
same,Compound 1-negative population,human iPS cells [5]; [11],56.6%
same,Compound 1-positive population,human iPS cells [5]; [11],43.4%
same,fluorescence of human ES cells,"human ES cells [6]; 1 μM, 1 hour, microscopy",strong fluorescence
same,labeling of differentiated cells in the presence of cyclosporine A,human ES cells [6]; cyclosporine A (MDR1 inhibitor) 10 μM,even the differentiated cells were labeled
same,fluorescence of differentiated cells,"human ES cells [6]; derived from human ES cells by retinoic acid, 1 μM, 1 hour, microscopy",little
same,staining of human ES cells relative to differentiated cells,human ES cells [6]; flow cytometric analysis,~100 times
same,staining of KB3-1 cells,ABCB1 (MDR1) [7],strongly stained
same,fluorescent signals in MDR1-expressing cells,"ABCB1 (MDR1) [8]; KB/MDR1 cells, 2 hrs",undetectable
same,substrate for ABCB1 (MDR1),ABCB1 (MDR1) [8]; KB/MDR1 versus KB3-1,good substrate
same,substrate for ABCC1 (MRP1),ABCC1 (MRP1),not a substrate
N=c1ccc2c(-c3ccc(F)cc3)c3ccc(NCCCCCCCCCCNC(=O)CCl)cc3oc-2c1 [Compound 22],fluorescently labeled mitochondrial protein identified by mass-sequencing,[9],ADH1 protein
same,selectivity for human iPS cells relative to Compound 1,human iPS cells [2]; human iPS cells,slightly less than that of Compound 1
same,sub-cellular localization,human iPS cells [2],localized in mitochondria of human iPS cells
"ClCc1ccc(C2=c3cc4c5c(c3Oc3c2cc2c6c3CCCN6CCC2)CCC[N+]=5CCC4)cc1.[Cl-] [MitoRed, reference compound]",cells in which mitochondria are stained,human iPS cells [2],both in human iPS cells and feeder cells
C/N=c1\ccc2c(-c3ccc(F)cc3)c3ccc(NC)cc3oc-2c1 [Compound 35],staining of human iPS cells compared with feeder cells,human iPS cells [1],stained human iPS cells stronger than feeder cells
